Results on 14 compounds are retold here after patent US12173018B2, “Penicillin-binding protein inhibitors” (priority 2018, dated 2024).

In experiment [1] the test system is E. coli ATCC 25922. Nature of the experiment: Broth microdilution MIC, E. coli ATCC 25922. The experiment is classed as cell-based. The settings on record: Escherichia coli. The method in brief: (§1)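 Broth microdilution MICs followed CLSI methods in cation-supplemented Mueller-Hinton broth, with 2-fold serial compound dilutions. Log-phase cultures grown 3–5 h were added to a starting inoculum of 5×10^5 CFU/mL and incubated 16–20 h at 37 °C. The MIC was read visually as the lowest concentration with no growth.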

Experiment [2] deals with E. coli AG100. Nature of the experiment: Broth microdilution MIC, E. coli AG100 (wild-type parent). The experiment is classed as cell-based. The settings on record: Escherichia coli; wild-type parent E. coli AG100, broth microdilution; read-out: MIC E. coli AG100. The method in brief: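 Starting inoculum of 5×10^5 CFU/mL, from colonies grown 3-5 h in Mueller-Hinton broth with divalent cations, added to two-fold compound dilution series.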

For experiment [3], the system named is E. coli 901C. Nature of the experiment: microbe, parasite or virus in culture. Format: cell-based. The settings on record: Escherichia coli; hyper-permeable E. coli 901C, broth microdilution; read-out: MIC E. coli 901C. The method in brief: as §1
Experiment [4] has as its system E. coli AG100A. Nature of the experiment: microbe, parasite or virus in culture. Format: cell-based. The settings on record: Escherichia coli, read-out: MIC E. coli AG100A. The method in brief:
as §1

Experiment [5] deals with K. pneumoniae UMM. In words: microbe, parasite or virus in culture. Format: cell-based. The settings on record: Klebsiella pneumoniae; K. pneumoniae UMM producing SHV-5 and KPC-2; read-out: MIC K. pneumoniae UMM. The method in brief: as §1
Experiment [6] concerns engineered strain of Escherichia coli harboring CTX-M15. Nature of the experiment: microbe, parasite or virus in culture. The settings on record: for MIC: Escherichia coli, read-out: Microbiological Activity (MIC in mg/L), E. coli DH5α/pLBII-CTX-M15, engineered strain producing CTX-M15. Format: cell-based.
In experiment [7] the test system is E. coli DH5α empty pLBII vector control strain. In words: microbe, parasite or virus in culture. Format: cell-based, Escherichia coli. The settings on record: for MIC: Escherichia coli, read-out: Microbiological Activity (MIC in mg/L), E. coli DH5α/pLBII. The method, then: Briefly, cryo-preserved bacterial cultures of challenge strains are streaked for isolation on appropriate agar medium, in this case Mueller Hinton II agar. Following incubation to allow growth of the colonies, plates are sealed with parafilm and stored refrigerated for up to two weeks. For preparation of assay inoculum and to ensure low variability, at least 5 colonies are picked from the agar plates with an inoculating loop and aseptically transferred to a culture tube containing 3 mL of Mueller-Hinton Broth (supplemented with divalent cations to required levels based on Manufacturers' certification). The broth culture is grown for 3-5 hours at 37° C. with shaking at 200 rpm. Meanwhile, 2-fold serial dilutions of test compounds are conducted in a 96 well plate with a final volume of 75 μL per well at 2-fold the final desired concentration. After the dilution plates are set up the growing cultures are then diluted in a cuvette containing MH II broth and the optical density is measured at 600 nm. The Inoculum is diluted such that 75 μL of this culture in Mueller-Hinton Broth results in a starting bacterial concentration of 5×10^5 CFU/mL when added to the dilution plates. The plates are incubated for 16-20 hours at 37° C. The MIC values are read visually as the lowest concentration well with no bacterial growth.
To determine if test compounds were affected by CTX-M15, the most abundant extended spectrum […] in clinical settings worldwide, the inhibition of the growth of an engineered strain of Escherichia coli harboring CTX-M15 was tested. This strain was constructed by cloning the gene encoding CTX-M15 into the NdeI and BamHI restriction endonuclease sites of plasmid pLBII, placing the gene(s) under the control of the Lac promoter. The constructed expression plasmid for CTX-M15 was used to transform competent E. coli DH5α cells to make the engineered strain, including an empty pLBII vector control strain. The classic cell based broth microdilution MIC assay was employed as described above with the addition of control antibiotics, known to be degraded by β-lactamases (Ceftazidime, piperacillin and piperacillin+tazobactam).

Experiment [8] addresses E. coli PBP3 (Escherichia coli (strain K12), UniProt P0AD68). Nature of the experiment: E. coli PBP3 Bocillin-FL fluorescence polarization competition binding assay. The method in brief:
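Purified E. coli PBP (1.5 μM final) competed with inhibitor (0-1000 μM) for Bocillin-FL (0.1 μM final) in 50 mM Hepes pH 8.0, 300 mM NaCl, 5% glycerol. Fluorescence polarization (ex 490/em 520 nm) was read continuously for 60 min after Bocillin-FL addition. EC50 was the concentration that reduced Bocillin-FL binding by 50%.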

[9] abbreviates: ATCC25922, read-out: MIC E. coli 25922.

Structures are written as SMILES. Converted amounts (≈) assume the structure as drawn. Counter-ions that a name gives are not always drawn. Like-named read-outs stand apart in the source and are kept apart here. Some results are limits rather than exact numbers.

Chain of E. coli PBP3 (P0AD68 whole entry): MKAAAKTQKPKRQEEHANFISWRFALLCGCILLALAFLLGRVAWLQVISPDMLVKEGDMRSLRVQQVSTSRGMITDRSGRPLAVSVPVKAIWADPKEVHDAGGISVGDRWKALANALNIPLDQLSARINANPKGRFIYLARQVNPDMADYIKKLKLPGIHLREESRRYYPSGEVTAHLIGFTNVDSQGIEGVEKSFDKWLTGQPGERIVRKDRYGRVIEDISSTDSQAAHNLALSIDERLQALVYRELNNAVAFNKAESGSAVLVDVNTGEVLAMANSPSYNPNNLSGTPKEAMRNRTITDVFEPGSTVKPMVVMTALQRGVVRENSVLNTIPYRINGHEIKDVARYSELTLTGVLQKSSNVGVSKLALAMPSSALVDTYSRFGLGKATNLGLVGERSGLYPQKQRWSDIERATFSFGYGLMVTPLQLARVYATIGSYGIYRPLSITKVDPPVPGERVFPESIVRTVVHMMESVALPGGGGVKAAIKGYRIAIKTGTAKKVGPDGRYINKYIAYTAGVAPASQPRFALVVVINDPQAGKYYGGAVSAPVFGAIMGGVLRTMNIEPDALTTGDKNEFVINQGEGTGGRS

As for `CCN1CCN(C(=O)N2C[C@@H](O)C[C@@H]2C(=O)N[C@H]2Cc3cccc(C(=O)O)c3OB2O)C(=O)C1=O` [Example 9, (R)-3-((2R,4S)-1-(4-ethyl-2,3-dioxopiperazine-1-carbonyl)-4-hydroxypyrrolidine-2-carboxamido)-2-hydroxy-3,4-dihydro-2H-benzo[e][1,2]oxaborinine-8-carboxylic acid], the MIC in experiment [1] (setting [9]) is over 128 µg/mL; in experiment [2], over 128 µg/mL; in experiment [3], over 128 µg/mL; in experiment [4], over 128 µg/mL; in experiment [5], over 128 µg/mL; in experiment [6] it was over 512 mg/L. Further, in experiment [7], the MIC was over 512 mg/L.
As to `CCN1CCN(C(=O)NC(C(=O)N[C@H]2Cc3cccc(C(=O)O)c3OB2O)c2nsc(N)n2)C(=O)C1=O` (stereo partly drawn) [Example 10, (3R)-3-(2-(5-amino-1,2,4-thiadiazol-3-yl)-2-(4-ethyl-2,3-dioxopiperazine-1-carboxamido)acetamido)-2-hydroxy-3,4-dihydro-2H-benzo[e][1,2]oxaborinine-8-carboxylic acid], the MIC fell in the range of 8 to 16 µg/mL in experiment [1] (setting [9]); 32 to 64 µg/mL in experiment [2]; 0.5 to 1 µg/mL in experiment [3]; 2 to 4 µg/mL in experiment [4]; 8 to 16 µg/mL in experiment [5]; 8 to 16 mg/L (≈ 15.1 to 30.1 µM) in experiment [6]. Moreover, in experiment [7], the MIC was 8 to 16 mg/L (≈ 15.1 to 30.1 µM).
For `CCN1CCN(C(=O)NC(C)(CCO)C(=O)N[C@H]2Cc3cccc(C(=O)O)c3OB2O)C(=O)C1=O` (stereo partly drawn) [Example 12, (3R)-3-(2-(4-ethyl-2,3-dioxopiperazine-1-carboxamido)-4-hydroxy-2-methylbutanamido)-2-hydroxy-3,4-dihydro-2H-benzo[e][1,2]oxaborinine-8-carboxylic acid], the MIC in experiment [6] and in experiment [7] was over 512 mg/L in each case.
For `Nc1nc(C(NC(=O)N2CCN(CCF)C(=O)C2=O)C(=O)N[C@H]2Cc3cccc(C(=O)O)c3OB2O)c(Cl)s1` (stereo partly drawn) [Example 13, (3R)-3-(2-(2-amino-5-chlorothiazol-4-yl)-2-(4-(2-fluoroethyl)-2,3-dioxopiperazine-1-carboxamido)acetamido)-2-hydroxy-3,4-dihydro-2H-benzo[e][1,2]oxaborinine-8-carboxylic acid], the EC50 in experiment [8] was 30 to 500 µM. The MIC in experiment [1] (ATCC25922, E. coli ATCC 25922, broth microdilution, read-out: MIC E. coli 25922) is 32 to 64 µg/mL; in experiment [2] it was 32 to 64 µg/mL; in experiment [3] it was under 0.25 µg/mL; in experiment [4], 2 to 4 µg/mL; in experiment [5], 32 to 64 µg/mL; in experiment [6] it was 8 to 16 mg/L (≈ 13.7 to 27.5 µM). The MIC in experiment [7] is 8 to 16 mg/L (≈ 13.7 to 27.5 µM).
For `CCN1CCN(C(=O)N2CC(CN)(C(=O)N[C@H]3Cc4cccc(C(=O)O)c4OB3O)C2)C(=O)C1=O` [Example 14, (R)-3-(3-(aminomethyl)-1-(4-ethyl-2,3-dioxopiperazine-1-carbonyl)azetidine-3-carboxamido)-2-hydroxy-3,4-dihydro-2H-benzo[e][1,2]oxaborinine-8-carboxylic acid, trifluoroacetic acid salt], the MIC in experiment [6] and in experiment [7] was over 512 mg/L each time.
Consider `CCN1CCN(C(=O)NCC(CN)(CO)C(=O)N[C@H]2Cc3cccc(C(=O)O)c3OB2O)C(=O)C1=O` (stereo partly drawn) [Example 15, (3R)-3-(3-amino-2-((4-ethyl-2,3-dioxopiperazine-1-carboxamido)methyl)-2-(hydroxymethyl)propanamido)-2-hydroxy-3,4-dihydro-2H-benzo[e][1,2]oxaborinine-8-carboxylic acid, trifluoroacetic acid salt], for which the MIC in experiment [6] and in experiment [7] was over 512 mg/L throughout.
Take `CCN1CCN(C(=O)NC(C(=O)N[C@H]2Cc3cccc(C(=O)O)c3OB2O)c2csc(N)n2)CC1=O` (stereo partly drawn) [Example 18, (3R)-3-(2-(2-aminothiazol-4-yl)-2-(4-ethyl-3-oxopiperazine-1-carboxamido)acetamido)-2-hydroxy-3,4-dihydro-2H-benzo[e][1,2]oxaborinine-8-carboxylic acid]: the concentration for a half-maximal effect (EC50) in experiment [8] is 30 to 500 µM. Further, the MIC in experiment [6] and in experiment [7] was 128 to 256 mg/L (≈ 248 to 496 µM) in each case.
As for `CCN1CCN(C(=O)C[C@H](N)C(=O)N[C@H]2Cc3cccc(C(=O)O)c3OB2O)C(=O)C1=O` [Example 19, (R)-3-((S)-2-amino-4-(4-ethyl-2,3-dioxopiperazin-1-yl)-4-oxobutanamido)-2-hydroxy-3,4-dihydro-2H-benzo[e][1,2]oxaborinine-8-carboxylic acid], the MIC in experiment [6] and in experiment [7] was over 512 mg/L in each case.
Regarding `CCN1CCN(C(=O)NC(C(=O)N[C@H]2Cc3cccc(C(=O)O)c3OB2O)c2ccc(OC)c(OC)c2)C(=O)C1=O` (stereo partly drawn) [Example 21, (3R)-3-(2-(3,4-dimethoxyphenyl)-2-(4-ethyl-2,3-dioxopiperazine-1-carboxamido)acetamido)-2-hydroxy-3,4-dihydro-2H-benzo[e][1,2]oxaborinine-8-carboxylic acid], the concentration giving a half-maximal response (EC50) in experiment [8] lay in the range of 30 to 500 µM. Moreover, the MIC in experiment [6] and in experiment [7] was 128 to 256 mg/L (≈ 225 to 450 µM) throughout.
On to `CCN1CCN(C(=O)N2C[C@H](O)C[C@@H]2C(=O)N[C@H]2Cc3cccc(C(=O)O)c3OB2O)C(=O)C1=O` [Example 28, (R)-3-((2R,4R)-1-(4-ethyl-2,3-dioxopiperazine-1-carbonyl)-4-hydroxypyrrolidine-2-carboxamido)-2-hydroxy-3,4-dihydro-2H-benzo[e][1,2]oxaborinine-8-carboxylic acid], for which the MIC in experiment [6] and in experiment [7] was over 512 mg/L in each case.
Take `CCN1CCN(C(=O)NC(C(=O)N[C@H]2Cc3cccc(C(=O)O)c3OB2O)c2cc(OC)c(OC)c(OC)c2)C(=O)C1=O` (stereo partly drawn) [Example 30, (3R)-3-(2-(4-ethyl-2,3-dioxopiperazine-1-carboxamido)-2-(3,4,5-trimethoxyphenyl)acetamido)-2-hydroxy-3,4-dihydro-2H-benzo[e][1,2]oxaborinine-8-carboxylic acid]: the MIC in experiment [6] and in experiment [7] was over 512 mg/L in each case.
For `CCN1CCN(C(=O)C[C@@H](N)C(=O)N[C@H]2Cc3cccc(C(=O)O)c3OB2O)C(=O)C1=O` [Example 32, (R)-3-((R)-2-amino-4-(4-ethyl-2,3-dioxopiperazin-1-yl)-4-oxobutanamido)-2-hydroxy-3,4-dihydro-2H-benzo[e][1,2]oxaborinine-8-carboxylic acid], the MIC in experiment [6] and in experiment [7] was over 512 mg/L throughout.
As to `CCN1CCN(C(=O)N[C@H](C(=O)N[C@H]2Cc3cccc(C(=O)O)c3OB2O)c2ccc(O)c(O)c2)C(=O)C1=O` [Example 38, (R)-3-((S)-2-(3,4-dihydroxyphenyl)-2-(4-ethyl-2,3-dioxopiperazine-1-carboxamido)acetamido)-2-hydroxy-3,4-dihydro-2H-benzo[e][1,2]oxaborinine-8-carboxylic acid], in experiment [8], the 50% effective concentration (EC50) is 30 to 500 µM. Further, the MIC in experiment [6] and in experiment [7] was 2 to 4 mg/L (≈ 3.7 to 7.4 µM) in each case.
Regarding `CCN1CCN(C(=O)N[C@@H](C(=O)N[C@@H]2C(=O)N3[C@@H]2SC(C)(C)[C@@H]3C(=O)O)c2ccccc2)C(=O)C1=O` [piperacillin, reference compound], the “MIC in CTX-M15 producer compared with parent strain with empty pLBII plasmid” value in experiment [6] (engineered E. coli DH5α with CTX-M15 vs empty vector control) was “weaker MICs in the CTX-M15 producer”. Moreover, in experiment [6] (engineered strain producing CTX-M15), the “Microbiological Activity (MIC in mg/L), E. coli DH5α/pLBII-CTX-M15” value is on record as “B (B represents an MIC of 128 to 256 μg/mL)”. The “Microbiological Activity (MIC in mg/L), E. coli DH5α/pLBII” value in experiment [7] is recorded as “F (F represents an MIC<1 μg/mL)”.
